Experimental findings from patent US7053070B2, “Pyrido[2,3-d]pyrimidine-2,7-diamine kinase inhibitors” (Warner-Lambert Company, priority 2000, dated 2006) are described below.

One data set has as its target cdk1/cyclinB (Homo sapiens, UniProt P06493). Put plainly: Cyclin dependent kinase 1 assay (cdk1/cyclinB), 32P incorporation, filter plate. In kind it is biochemical. Conditions: retinoblastoma substrate, 12 mM ATP, 25° C., 15 minutes; read-out: Inhibition of Cdks: IC50 Cdk1/B. As for the experimental part:
(§1) Cyclin Dependent Kinase 1 and 2 Assays (cdk1/cyclinB, cdk2/cyclinA, cdk2/cyclinE)
(§2) Enzyme assays for IC50 determinations and kinetic evaluation are performed in a 96-well filter plate (Millipore MADVN6550) in a total volume of 0.1 mL of 20 mM TRIS (tris[hydroxymethyl]aminomethane), at pH 7.4, 50 mM NaCl, 1 mM dithiothreitol, 10 mM MgCl2, […] containing 0.25 μCi of [^32P]ATP, 20 ng of enzyme (either cdk1/B, cdk2/A, or cdk2E), 1 μg retinoblastoma and appropriate dilutions of the particular invention compound. All components except the ATP are added to the wells, and the plate is placed on a plate mixer for 2 minutes. The reaction is begun by addition of [^32P]ATP, and the plate is incubated at 25° C. for 15 minutes. The reaction is terminated by addition of 0.1 mL of 20% TCA. The plate is kept at 4° C. for at least 1 hour to allow the substrate to precipitate. The wells are then washed 5 times with 0.2 mL of 10% TCA and ^32P incorporation determined with a beta plate counter (Wallac Inc., Gaithersburg, Md.).

In a further data set the target is cdk2/cyclinA (Homo sapiens, UniProt P24941). Put plainly: Cyclin dependent kinase 2 assay (cdk2/cyclinA), 32P incorporation, filter plate. To be noted: retinoblastoma substrate, 12 mM ATP, 25° C., 15 minutes; read-out: Inhibition of Cdks: IC50 Cdk2/A. In kind it is biochemical. The protocol: as §1, §2
The target in a further data set is cdk2/cyclinE (Homo sapiens, UniProt P24941). Put plainly: Cyclin dependent kinase 2 assay (cdk2/cyclinE), 32P incorporation, filter plate. In kind it is biochemical. To be noted: retinoblastoma substrate, 12 mM ATP, 25° C., 15 minutes; read-out: Inhibition of Cdks: IC50 Cdk2/E. The protocol:
as §1, §2

A further data set has as its target cdk4/cyclinD (Homo sapiens, UniProt P11802). Put plainly: Cyclin Dependent Kinase 4 (cdk-4) Assay, 32P incorporation, filter plate. In kind it is biochemical. Conditions: retinoblastoma substrate, 25 μM ATP, 25° C., 15 minutes; read-out: Inhibition of Cdks: IC50 Cdk4D. As for the experimental part: Cyclin Dependent Kinase 4 (cdk-4) Assay
Enzyme assays for IC50 determinations and kinetic evaluation are performed in 96-well filter plates (Millipore MADVN6550). The total volume is 0.1 mL containing a final concentration of 20 mM TRIS (tris[hydroxymethyl]aminomethane), at pH 7.4, 50 mM NaCl, 1 mM dithiothreitol, 10 mM MgCl2, 25 μM ATP containing 0.25 μCi of [^32P]ATP, 20 ng of cdk4, 1 μg of retinoblastoma, and appropriate dilutions of a compound of the present invention. All components except the ATP are added to the wells, and the plate is placed on a plate mixer for 2 minutes. The reaction is started by adding [^32P]ATP, and the plate is incubated at 25° C. for 15 minutes. The reaction is terminated by addition of 0.1 mL of 20% trichloroacetic acid (TCA). The plate is kept at 4° C. for at least 1 hour to allow the substrate to precipitate. The wells are then washed 5 times with 0.2 mL of 10% TCA and ^32P incorporation is determined with a beta plate counter (Wallac Inc., Gaithersburg, Md.).

Data set [1] concerns the target T1, FGF-1 (flg) receptor tyrosine kinase (FGFr) (Homo sapiens, UniProt P11362).
T1 construct: amplify a fragment of DNA that codes for the intracellular tyrosine kinase domain; made in house; host or cells: SF9 insect cells (baculovirus); crude cell lysate used
Put plainly: FGF Receptor Tyrosine Kinase Assay. In kind it is biochemical. To be noted: at 50 μM compound; glutamate-tyrosine co-polymer substrate; read-out: Inhibition of Tyrosine Kinases: % Inhibition at 50 μM FGFr. An excerpt:
PDGF and FGF Receptor Tyrosine Kinase Assays
Full-length cDNAs for the mouse PDGF-β and human FGF-1 (flg) receptor tyrosine kinases are obtained from J. Escobedo and prepared as described in J. Biol. Chem. 1991; 262:1482-1487. PCR primers are designed to amplify a fragment of DNA that codes for the intracellular tyrosine kinase domain. The fragment is inserted into a baculovirus vector, cotransfected with AcMNPV DNA, and the recombinant virus isolated. SF9 insect cells are infected with the virus to overexpress the protein, and the cell lysate is used for the assay. Assays are performed in 96-well plates (100 μL/incubation/well), and conditions are optimized to measure the incorporation of ^32P from γ^32P-ATP into a glutamate-tyrosine co-polymer substrate. Briefly, to each well is added 82.5 μL of incubation buffer containing 25 mM Hepes (pH 7.0), 150 mM NaCl, 0.1% Triton X-100, 0.2 mM PMSF, 0.2 mM Na3VO4, 10 mM MnCl2, and 750 μg/mL of Poly (4:1) glutamate-tyrosine followed by 2.5 μL of inhibitor and 5 μL of enzyme lysate (7.5 μg/μL FGF-TK or 6.0 μg/μL PDGF-TK) to initiate the reaction. Following a 10-minute incubation at 25° C. […] of γ^32P-ATP (0.4 μCi plus 50 μM ATP) is added to each well, and samples are incubated for an additional 10 minutes at 25° C. The reaction is terminated by the addition of 100 μL of 30% trichloroacetic acid (TCA) containing 20 mM sodium pyrophosphate and precipitation of material onto glass fiber mats (Wallac). Filters are washed 3 times with 15% TCA containing 100 mM sodium pyrophosphate, and the radioactivity retained on the filters counted in a Wallac 1250 Betaplate reader. Nonspecific activity is defined as radioactivity retained on the filters following incubation of samples with buffer alone (no enzyme). Specific enzymatic activity (enzyme plus buffer) is defined as total activity minus nonspecific activity.

Where only a bound is given, the exact number is not on record here.

Sequence of cdk1/cyclinB (P06493 whole entry, species assumed): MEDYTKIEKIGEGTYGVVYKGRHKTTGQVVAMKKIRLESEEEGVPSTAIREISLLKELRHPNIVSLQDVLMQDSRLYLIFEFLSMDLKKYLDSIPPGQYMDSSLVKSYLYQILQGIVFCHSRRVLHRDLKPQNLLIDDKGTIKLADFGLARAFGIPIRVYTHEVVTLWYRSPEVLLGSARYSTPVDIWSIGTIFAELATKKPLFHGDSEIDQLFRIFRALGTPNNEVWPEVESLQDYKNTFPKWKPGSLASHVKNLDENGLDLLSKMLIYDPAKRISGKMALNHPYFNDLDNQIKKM
Sequence of cdk1/cyclinB (P14635 whole entry partner, species assumed): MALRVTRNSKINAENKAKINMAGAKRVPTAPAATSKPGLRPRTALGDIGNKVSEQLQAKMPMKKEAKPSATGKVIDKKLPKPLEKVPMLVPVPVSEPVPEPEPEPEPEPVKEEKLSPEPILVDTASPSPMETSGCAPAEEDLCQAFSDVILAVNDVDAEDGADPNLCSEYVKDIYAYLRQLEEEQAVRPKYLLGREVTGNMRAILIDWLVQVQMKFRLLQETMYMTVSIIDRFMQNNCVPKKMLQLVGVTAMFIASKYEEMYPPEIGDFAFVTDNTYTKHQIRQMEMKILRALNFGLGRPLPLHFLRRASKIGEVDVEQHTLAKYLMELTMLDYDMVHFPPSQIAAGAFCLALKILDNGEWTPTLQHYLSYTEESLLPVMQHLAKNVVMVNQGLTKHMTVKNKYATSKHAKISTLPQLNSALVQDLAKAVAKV
Sequence of cdk4/cyclinD (P11802 whole entry, species assumed): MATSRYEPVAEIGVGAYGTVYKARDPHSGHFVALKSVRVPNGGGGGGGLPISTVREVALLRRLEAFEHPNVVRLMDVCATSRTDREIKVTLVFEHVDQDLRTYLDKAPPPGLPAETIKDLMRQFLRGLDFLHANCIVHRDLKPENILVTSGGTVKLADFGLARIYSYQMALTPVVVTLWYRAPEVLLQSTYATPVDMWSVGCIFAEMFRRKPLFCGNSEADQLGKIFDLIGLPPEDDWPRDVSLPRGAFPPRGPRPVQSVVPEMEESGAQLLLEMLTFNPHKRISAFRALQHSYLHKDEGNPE
Sequence of cdk4/cyclinD (P24385 whole entry partner, species assumed): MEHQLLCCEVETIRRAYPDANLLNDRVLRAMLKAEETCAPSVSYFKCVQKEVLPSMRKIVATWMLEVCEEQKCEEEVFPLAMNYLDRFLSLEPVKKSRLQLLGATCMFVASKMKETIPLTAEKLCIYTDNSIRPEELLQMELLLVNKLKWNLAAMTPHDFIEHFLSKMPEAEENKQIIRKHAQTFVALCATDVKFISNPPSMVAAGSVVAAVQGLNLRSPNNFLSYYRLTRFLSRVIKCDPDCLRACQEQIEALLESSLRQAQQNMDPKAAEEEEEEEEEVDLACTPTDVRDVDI
T1 sequence (P11362 478-767 limits assumed): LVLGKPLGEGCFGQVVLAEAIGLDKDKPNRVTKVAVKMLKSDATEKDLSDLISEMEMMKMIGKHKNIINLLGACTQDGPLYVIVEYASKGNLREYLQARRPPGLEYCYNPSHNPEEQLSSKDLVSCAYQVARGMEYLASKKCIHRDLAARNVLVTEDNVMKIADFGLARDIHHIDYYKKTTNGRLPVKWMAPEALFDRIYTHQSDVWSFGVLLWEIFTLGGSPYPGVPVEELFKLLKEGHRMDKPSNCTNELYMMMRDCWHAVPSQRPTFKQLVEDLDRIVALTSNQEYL

In the case of `O=C(Nc1ccc2cnc(Nc3ccc(N4CCNCC4)cc3)nc2n1)NC1CCCCC1` [Compound 9, 1-Cyclohexyl-3-[2-(4-piperazin-1-yl-phenylamino)-pyrido[2,3-d]pyrimidin-7-yl]-urea], the IC50 on cdk1/cyclinB is 0.027 µM; at cdk2/cyclinA it was 0.01 µM; at cdk2/cyclinE it was 0.02 µM; at cdk4/cyclinD, 0.005 µM. Moreover, the inhibition at 50 µM in data set [1] turned out to be 89.8%.

For `Cc1cc(Nc2ncc3ccc(NC(=O)Nc4ccc(Cl)cc4)nc3n2)ccc1F` [Compound 47, 1-(4-Chloro-phenyl)-3-[2-(4-fluoro-3-methyl-phenylamino)-pyrido[2,3-d]pyrimidin-7-yl]-urea], the melting point is > 250 °C. For the same molecule, the IC50 on cdk1/cyclinB is > 5 µM. Besides, the IC50 at cdk2/cyclinA was > 5 µM. Also, the IC50 at cdk2/cyclinE is > 5 µM. At cdk4/cyclinD, the IC50 was > 5 µM. Besides, the inhibition at 50 µM in data set [1] stood at 10.5%.

Regarding `CN1CCN(C(=O)Nc2ccc3cnc(Nc4ccc(N5CCNCC5)cc4)nc3n2)CC1` [Compound 84, 4-Methyl-piperazine-1-carboxylic acid [2-(4-piperazin-1-yl-phenylamino)-pyrido[2,3-d]pyrimidin-7-yl]-amide], the melting point is 200 °C (dec.). For the same molecule, on cdk1/cyclinB, the IC50 was > 5 µM. Also, the IC50 at cdk2/cyclinA is > 5 µM. Further, the IC50 on cdk2/cyclinE was > 5 µM. For the same molecule, the IC50 on cdk4/cyclinD was > 5 µM.

Regarding `C[C@@H]1CN(c2ccc(Nc3ncc4cc(Cl)c(NC(=O)NC(C)(C)C)nc4n3)cc2)C[C@H](C)N1` [Compound 104, 1-tert-Butyl-3-{6-chloro-2-[4-(cis-3,5-dimethyl-piperazin-1-yl)-phenylamino]-pyrido[2,3-d]pyrimidin-7-yl}-urea], the melting point was 205 °C (dec.). In addition, the IC50 at cdk1/cyclinB is > 5 µM. In addition, the IC50 on cdk2/cyclinA is > 5 µM. In addition, the IC50 at cdk2/cyclinE was > 5 µM. Moreover, on cdk4/cyclinD, the IC50 was determined as 0.185 µM.

On to `CN(C(=O)Nc1ccc2cnc(Nc3ccc(N4CCNCC4)cc3)nc2n1)C1CCCCC1` [Compound 65, 1-Cyclohexyl-1-methyl-3-[2-(4-piperazin-1-yl-phenylamino)-pyrido[2,3-d]pyrimidin-7-yl]-urea], for which the melting point was 177 °C (dec.). The IC50 at cdk1/cyclinB is > 5 µM. Moreover, the IC50 on cdk2/cyclinA was > 5 µM. Moreover, the IC50 on cdk2/cyclinE is > 5 µM. Moreover, the IC50 on cdk4/cyclinD was > 5 µM.

Regarding `Cc1c(F)c(NC(=O)NC(C)C)nc2nc(Nc3ccc(N4CCNCC4)cc3)ncc12` [Compound 114, 1-[6-Fluoro-5-methyl-2-(4-piperazin-1-yl-phenylamino)-pyrido[2,3-d]pyrimidin-7-yl]-3-isopropyl-urea], the melting point is 208 °C (dec.). For the same molecule, at cdk1/cyclinB, the IC50 was > 5 µM. Moreover, the IC50 at cdk2/cyclinA is > 5 µM. Besides, the IC50 at cdk2/cyclinE is > 5 µM. At cdk4/cyclinD, the IC50 was > 5 µM.

Consider `CC(C)[C@H](CO)NC(=O)Nc1ccc2cnc(Nc3ccc(N4CCNCC4)cc3)nc2n1` [Compound 88, 1-((R)-1-Hydroxymethyl-2-methyl-propyl)-3-[2-(4-piperazin-1-yl-phenylamino)-pyrido[2,3-d]pyrimidin-7-yl]-urea], for which the melting point was 200 °C (dec.). At cdk1/cyclinB, the IC50 amounted to 0.418 µM. Besides, the IC50 on cdk2/cyclinA is 0.043 µM. For the same molecule, the IC50 on cdk2/cyclinE was 0.055 µM. At cdk4/cyclinD, the IC50 was determined as 0.025 µM.

Molecule `CCNC(=O)Nc1cc(C)c2cnc(Nc3ccc(N4CCNCC4)cc3)nc2n1` [Compound 28, 1-Ethyl-3-[5-methyl-2-(4-piperazin-1-yl-phenylamino)-pyrido[2,3-d]pyrimidin-7-yl]-urea] returned a melting point of 220 to 222 °C. Further, on cdk1/cyclinB, the IC50 is > 5 µM. Besides, the IC50 on cdk2/cyclinA was > 5 µM. The IC50 on cdk2/cyclinE is > 5 µM. In addition, the IC50 on cdk4/cyclinD was > 5 µM.

The molecule `O=C(NCCO)Nc1ccc2cnc(Nc3ccc(F)cc3)nc2n1` [Compound 97, 1-[2-(4-Fluoro-phenylamino)-pyrido[2,3-d]pyrimidin-7-yl]-3-(2-hydroxy-ethyl)-urea] showed a melting point of 238 to 240 °C. Besides, the IC50 on cdk1/cyclinB came to 0.862 µM. On cdk2/cyclinA, the IC50 was found to be 0.278 µM. Further, the IC50 at cdk2/cyclinE came to 0.345 µM. The IC50 on cdk4/cyclinD is > 5 µM.

For the molecule `CCCNC(=O)Nc1cc(C)c2cnc(Nc3ccc(N4CCNCC4)cc3)nc2n1` [Compound 111, 1-[5-Methyl-2-(4-piperazin-1-yl-phenylamino)-pyrido[2,3-d]pyrimidin-7-yl]-3-propyl-urea], the melting point lay in the range of 223 to 225 °C. Moreover, the IC50 on cdk1/cyclinB is > 5 µM. The IC50 on cdk2/cyclinA is > 5 µM. Besides, the IC50 at cdk2/cyclinE was > 5 µM. In addition, the IC50 at cdk4/cyclinD is > 5 µM.

For the molecule `O=C(NCCCN1CCOCC1)Nc1ccc2cnc(Nc3ccc(F)cc3)nc2n1` [Compound 96, 1-[2-(4-Fluoro-phenylamino)-pyrido[2,3-d]pyrimidin-7-yl]-3-(3-morpholin-4-yl-propyl)-urea], the melting point was 253 to 256 °C. Further, the IC50 on cdk1/cyclinB was 6.36 µM. Also, the IC50 on cdk2/cyclinA is 1.11 µM. Besides, the IC50 at cdk2/cyclinE amounted to 1.55 µM. For the same molecule, at cdk4/cyclinD, the IC50 was > 5 µM.

Consider `O=C(Nc1ccc2cnc(Nc3ccc(N4CCNCC4)cc3)nc2n1)N(CCO)CCO` [Compound 89, 1,1-Bis-(2-hydroxy-ethyl)-3-[2-(4-piperazin-1-yl-phenylamino)-pyrido[2,3-d]pyrimidin-7-yl]-urea], for which the melting point is 185 °C (dec.). Also, the IC50 on cdk1/cyclinB was > 5 µM. For the same molecule, the IC50 at cdk2/cyclinA is > 5 µM. For the same molecule, on cdk2/cyclinE, the IC50 is > 5 µM. Further, the IC50 on cdk4/cyclinD is > 5 µM.

As for `C[C@@H]1CN(c2ccc(Nc3ncc4ccc(NC(=O)NC(C)(C)C)nc4n3)cc2)C[C@H](C)N1` [Compound 49, 1-tert-Butyl-3-{2-[4-(cis-3,5-dimethyl-piperazin-1-yl)-phenylamino]-pyrido[2,3-d]pyrimidin-7-yl}-urea], the melting point was 245 °C (dec.). Also, at cdk1/cyclinB, the IC50 was determined as 0.911 µM. Further, the IC50 at cdk2/cyclinA stood at 0.528 µM. Besides, the IC50 at cdk2/cyclinE was 0.475 µM. In addition, on cdk4/cyclinD, the IC50 was determined as 0.05 µM.

Consider `CCCN(CCC)C(=O)Nc1ccc2cnc(Nc3ccc(N4CCNCC4)cc3)nc2n1` [Compound 86, 3-[2-(4-Piperazin-1-yl-phenylamino)-pyrido[2,3-d]pyrimidin-7-yl]-1,1-dipropyl urea], for which the melting point is 190 °C (dec.). Besides, the IC50 at cdk1/cyclinB was > 5 µM. At cdk2/cyclinA, the IC50 was > 5 µM. For the same molecule, the IC50 on cdk2/cyclinE was > 5 µM. Also, at cdk4/cyclinD, the IC50 is > 5 µM.

Usually inhibition stands for how much of the control response was suppressed. A word on the melting point: it is the temperature of the solid-liquid transition.
